In PubChem BioAssay AID2060899 (Molecular Pharmacology Branch, DTP, NCI, 2025):

System: 565726-208-R1-J5-PDC complex spheroids, growth inhibition
Assay: Anticancer human tumor 565726-208-R1-J5-PDC patient-derived pancreatic adenocarcinoma cell line growth inhibition [RAS]
Details: for IC50: curve of first compound; for viability, T/C: stronger effect = lower value
Procedure, shortened: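 Multi-cell-type spheroids: tumor cells plus HUVEC endothelial cells and mesenchymal stem cells. RAS-pathway inhibitors were combined with targeted agents, each dosed in half-log steps down from clinical Cmax, or from 10 microM when Cmax was unknown.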

[1] = second compound 0.00316 µM, first compound 0.0316 µM
[2] = second compound 0.00316 µM, first compound 0.1 µM
[3] = second compound 0.00316 µM, first compound 0.316 µM
[4] = second compound 0.00316 µM, first compound 1 µM
[5] = second compound 0.00316 µM, first compound 3.16 µM
[6] = second compound 0.00316 µM, first compound 10 µM
[7] = second compound 0.01 µM, first compound 0.0316 µM
[8] = second compound 0.01 µM, first compound 0.1 µM
[9] = second compound 0.01 µM, first compound 0.316 µM
[10] = second compound 0.01 µM, first compound 1 µM
[11] = second compound 0.01 µM, first compound 3.16 µM
[12] = second compound 0.01 µM, first compound 10 µM
[13] = second compound 0.0316 µM, first compound 0.0316 µM
[14] = second compound 0.0316 µM, first compound 0.1 µM
[15] = second compound 0.0316 µM, first compound 0.316 µM
[16] = second compound 0.0316 µM, first compound 1 µM
[17] = second compound 0.0316 µM, first compound 3.16 µM
[18] = second compound 0.0316 µM, first compound 10 µM
[19] = second compound 0.1 µM, first compound 0.0316 µM
[20] = second compound 0.1 µM, first compound 0.1 µM
[21] = second compound 0.1 µM, first compound 0.316 µM
[22] = second compound 0.1 µM, first compound 1 µM
[23] = second compound 0.1 µM, first compound 3.16 µM
[24] = second compound 0.1 µM, first compound 10 µM
[25] = second compound 0.316 µM, first compound 0.0316 µM
[26] = second compound 0.316 µM, first compound 0.1 µM
[27] = second compound 0.316 µM, first compound 0.316 µM
[28] = second compound 0.316 µM, first compound 1 µM
[29] = second compound 0.316 µM, first compound 3.16 µM
[30] = second compound 0.316 µM, first compound 10 µM
[31] = second compound 1 µM, first compound 0.0316 µM
[32] = second compound 1 µM, first compound 0.1 µM
[33] = second compound 1 µM, first compound 0.316 µM
[34] = second compound 1 µM, first compound 1 µM
[35] = second compound 1 µM, first compound 3.16 µM
[36] = second compound 1 µM, first compound 10 µM
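Also: spheroids exposed to compounds for seven days before readout.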
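For viability, T/C in this document: 100% = DMSO vehicle control viability.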

Compound: CCC(CC)c1cc(NC2CCC(N)C2)n2nccc2n1 (centres undefined) + C=CC(=O)N1CCN(c2nc(OCC3CCCN3C)nc3c(F)c(-c4nc(N)cc(C)c4C(F)(F)F)c(Cl)cc23)C(C)C1
- IC50 (second compound 0.00316 µM): 1930 nM
- IC50 (second compound 0.01 µM): 1700 nM
- IC50 (second compound 0.0316 µM): 1620 nM
- IC50 (second compound 0.1 µM): 1600 nM
- IC50 (second compound 0.316 µM): 1580 nM
- IC50 (second compound 1 µM): 1720 nM
- viability, T/C [1]: 152%
- viability, T/C [2]: 180%
- viability, T/C [3]: 128%
- viability, T/C [4]: 110%
- viability, T/C [5]: 1.79%
- viability, T/C [6]: 2.13%
- viability, T/C [7]: 166%
- viability, T/C [8]: 179%
- viability, T/C [9]: 114%
- viability, T/C [10]: 94.6%
- viability, T/C [11]: 3.11%
- viability, T/C [12]: 1.95%
- viability, T/C [13]: 174%
- viability, T/C [14]: 170%
- viability, T/C [15]: 125%
- viability, T/C [16]: 88.1%
- viability, T/C [17]: 1.53%
- viability, T/C [18]: 2.03%
- viability, T/C [19]: 221%
- viability, T/C [20]: 184%
- viability, T/C [21]: 102%
- viability, T/C [22]: 96.2%
- viability, T/C [23]: 1.59%
- viability, T/C [24]: 2.52%
- viability, T/C [25]: 182%
- viability, T/C [26]: 169%
- viability, T/C [27]: 103%
- viability, T/C [28]: 92.5%
- viability, T/C [29]: 1.41%
- viability, T/C [30]: 2.15%
- viability, T/C [31]: 175%
- viability, T/C [32]: 176%
- viability, T/C [33]: 136%
- viability, T/C [34]: 92.7%
- viability, T/C [35]: 1.49%
- viability, T/C [36]: 1.88%

Compound: Cc1nc(N2CCC3(CC2)COC(C)C3N)c(CO)nc1Sc1ccnc(N)c1Cl (centres undefined) + C=CC(=O)N1CCN(c2nc(OCC3CCCN3C)nc3c(F)c(-c4nc(N)cc(C)c4C(F)(F)F)c(Cl)cc23)C(C)C1
- IC50 (second compound 0.00316 µM): > 10000 nM
- IC50 (second compound 0.01 µM): > 10000 nM
- IC50 (second compound 0.0316 µM): > 10000 nM
- IC50 (second compound 0.1 µM): > 10000 nM
- IC50 (second compound 0.316 µM): > 10000 nM
- IC50 (second compound 1 µM): > 10000 nM
- viability, T/C [1]: 115%
- viability, T/C [2]: 142%
- viability, T/C [3]: 71%
- viability, T/C [4]: 86.8%
- viability, T/C [5]: 117%
- viability, T/C [6]: 143%
- viability, T/C [7]: 154%
- viability, T/C [8]: 134%
- viability, T/C [9]: 77.8%
- viability, T/C [10]: 87.9%
- viability, T/C [11]: 121%
- viability, T/C [12]: 148%
- viability, T/C [13]: 149%
- viability, T/C [14]: 173%
- viability, T/C [15]: 77.3%
- viability, T/C [16]: 90.5%
- viability, T/C [17]: 126%
- viability, T/C [18]: 139%
- viability, T/C [19]: 162%
- viability, T/C [20]: 147%
- viability, T/C [21]: 80.6%
- viability, T/C [22]: 74.2%
- viability, T/C [23]: 138%
- viability, T/C [24]: 126%
- viability, T/C [25]: 180%
- viability, T/C [26]: 136%
- viability, T/C [27]: 78.5%
- viability, T/C [28]: 76.7%
- viability, T/C [29]: 106%
- viability, T/C [30]: 140%
- viability, T/C [31]: 167%
- viability, T/C [32]: 135%
- viability, T/C [33]: 78.3%
- viability, T/C [34]: 83.4%
- viability, T/C [35]: 111%
- viability, T/C [36]: 133%
